Molecules are shown by their SMILES. Active and inactive are the calls of the source. No rule for the calls is given here.

This test concerns INS-1E Gaussia luciferase insulin secretion, no glucose, luminescence. The test can be described thus: glucose-independent GLuc insulin release activation – cell-based, INS-1E, Gaussia luciferase, luminescence, cherry-pick, counter-screen for glucose-dependent insulin secretion activators, dose response (AID 977606). Background: The purpose of a counterscreen is to sort out artefacts and off-target activity.
Consider `CCCCCCC1CCC(C(=O)Nn2c(C)nc3ccccc3c2=O)CC1` (stereo not given), for which the AC40 was 14.8 µM.

As for `C/C=C/c1ccc(C2[C@@H]3CN(C(=O)Nc4ccc(C(F)(F)F)cc4)C[C@H]2N3)cc1` (stereo not given in full), the AC40 was 5.83 µM. For `COc1cccc(-c2cc(C(=O)Nc3cc(C)on3)no2)c1`, the AC40 was 10.7 µM. As for `CN1CCN(C2Cc3ccccc3Sc3cc(C(F)(F)F)ccc32)CC1` (stereo not given), the AC40 was 7.2 µM.

As to `COc1ccc(C(=O)Cc2ccc3c(c2)OCO3)c(O)c1`, the AC40 is 25 µM. `c1ccc(Oc2ccccc2-c2cc(NCCc3cccnc3)n3nccc3n2)cc1`: the AC40 is 13.1 µM. Under `CCOc1ccc(-c2nnn(CC(=O)Nc3ccccc3OC)n2)cc1OCC` stands 7.27 µM; under `Cc1ccc(-n2sc3cc(F)ccc3c2=O)c(C)c1`, 0.883 µM. On to `COC(=O)c1ccc2c(c1)NC(=O)C(N(CC(C)C)CC(C)C)S2` (stereo not given), for which the AC40 is 2.51 µM. Take `COc1cc(CN2[C@@H]3CNC[C@H]2C3c2ccc(/C=C/c3ccccc3)cc2)cc(OC)c1` (stereo not given in full): the AC40 was 9.7 µM. As to `Cc1nn(Cc2ccc(Cl)cc2Cl)c(Cl)c1C(=O)Nc1ccc(OC(F)F)cc1`, the AC40 was 5.64 µM. For `COc1cc(OC)c2c(-c3ccccc3)cc(C3CCCCC3)nc2c1`, the AC40 is 12.1 µM. Under `Cn1c(=O)c(C(=O)NNC(=O)c2cccc(Cl)c2)c(O)c2ccccc21` stands 9.13 µM. On to `CC1(Cc2ccc(C(F)(F)F)o2)C(=O)Nc2ccc(-c3cccc(C(F)(F)F)c3)cc21` (stereo not given), for which the AC40 is 5.92 µM.

As to `N#Cc1cccc(-c2ccc(C3[C@H]4CNC[C@@H]3N4Cc3cc(-c4ccccc4)on3)cc2)c1` (stereo not given in full), the AC40 is 9.78 µM. On to `CS(=O)(=O)N1CCN(c2ccc(NC(=O)c3ccc(-c4ccc(Cl)cc4)o3)cc2)CC1`, for which the AC40 is 9.12 µM. For `COc1ccc(-c2ccc3c(N)c(C(=O)c4ccc(OC)c(OC)c4)sc3n2)cc1`, the AC40 was 6.27 µM. For the compound `CCOC(=O)Nc1cccc(OCC(=O)Nc2ccc3c(c2)CCC3)c1`, the AC40 was 8.25 µM. With `CC(C)COc1ccc(Br)cc1CNC(C)(C)C`, the AC40 is > 35 µM (inactive).

Regarding `CCCCc1c(-c2ccccc2OC)ncn1CCc1ccccc1`, the AC40 was 9.48 µM.

Consider `CCSc1ccc2nnc(-c3ccc(F)cc3)n2n1`, for which the AC40 is 17.9 µM.

On to `Cc1ccc(C(OCC(O)CNCc2ccc(F)cc2)c2ccccc2)cc1` (stereo not given), for which the AC40 was 8.22 µM.

With `COc1ccc(/C=N/N(C(C)=O)c2nc(-c3ccc(C)cc3)cs2)cc1`, the AC40 is 1.98 µM. Under `Cc1ccccc1-c1ccc(C2[C@@H]3CN(S(=O)(=O)c4ccccc4C)C[C@H]2N3)cc1` (stereo not given in full) stands 5.8 µM; under `CC(C)(C)c1nc2ccc(Cl)cn2c1CC1CCCCC1`, 13.2 µM. For the compound `CCCc1cc(-c2nc(-c3ccc(C)cc3)cs2)ccn1`, the AC40 is 7.92 µM. As to `CCOc1cc(/C=N/NC(=O)CCn2nc(C)cc2C)ccc1O`, the AC40 was 21.9 µM. As to `Cc1cc(NC(=O)c2ccccc2F)n(-c2nc3ccccc3[nH]2)n1`, the AC40 is 4.6 µM. Under `CCOC(=O)[C@]12Cc3c(cc(OC)c(OC)c3OC)[C@H]1N(C1CCCCC1)C(=O)c1cc(OC)ccc12` stands 6 µM. `Cc1nc2ccccc2c2oc(C(=O)N3CCCC(C)C3)cc12` (stereo not given): the AC40 is 16 µM. `COc1ccccc1CCn1cnc(-c2ccccc2OC)c1CC(C)C`: the AC40 is 11.4 µM.

With `CCOc1cc(N2CCOCC2)c(OCC)cc1NC(=O)COC(=O)c1cc2ccccc2cc1O`, the AC40 was 4.74 µM. For the compound `Cc1cc(C)nc(NS(=O)(=O)c2ccc(N/C=C/C(=O)c3ccc(Cl)c(Cl)c3)cc2)n1`, the AC40 was 4.44 µM.

For `CC(C)Cn1nc(-c2ccccc2)c2ccccc2c1=O`, the AC40 was 8.13 µM. For the compound `O=C(Nc1ccc2ccccc2c1)c1cccc2ccccc12`, the AC40 is 3.25 µM. Take `COc1ccc(/C=N/Nc2nc(-c3ccc(Cl)cc3)cc(C(F)(F)F)n2)c(OC)c1`: the AC40 was 12.2 µM. Consider `Cc1c(C)c2c(OCC(=O)O)cc3c(c2oc1=O)CCC(C)(C)O3`, for which the AC40 is 22 µM. As to `COc1ccc2c(c1)CCc1c(C(=O)Nc3cc(C)n(Cc4ccc(Cl)cc4)n3)noc1-2`, the AC40 was 1.86 µM. `CC(C)CC#Cc1ccc2c(c1)O[C@@H](CN(C)Cc1ccc(F)cc1)[C@H](C)CN([C@H](C)CO)S2(=O)=O`: the AC40 is 9.44 µM. Under `OC(c1ccccc1)(c1ccccc1)C1CCN(CCCOc2ccc(-c3ccc(F)cc3F)cc2)CC1` stands 1.29 µM; under `COc1ccc(CC(N)c2csc(NC(=O)Nc3ccc(C(C)C)cc3)n2)cc1` (stereo not given), 3.58 µM. As to `Clc1ccc(-c2ccnc(Oc3cc(Cl)ccc3Cl)n2)cc1`, the AC40 is 6.7 µM. On to `O=C(Nc1ccc2c(c1)OCO2)N1C[C@@H]2N[C@H](C1)C2c1ccc(C=Cc2ccccc2)cc1` (stereo not given in full), for which the AC40 is 11.7 µM. As for `Cc1ccc(-c2n[nH]c(=S)n2/N=C/c2c(C)nn(-c3ccccc3)c2C)cc1`, the AC40 is 6.5 µM.

In the case of `NC(N)=N/N=C/c1ccc(OCc2ccccc2)c(OCc2ccccc2)c1`, the AC40 was 6.87 µM. `COCc1[nH]nc2c1C(c1ccc(C)cc1)NC2=O` (stereo not given): the AC40 was 28.5 µM. `COc1ccccc1CCn1cnc(-c2cccc(F)c2)c1C(C)C`: the AC40 was 11.6 µM. With `CN(C)CCOc1ccc(-c2c(-c3ccccc3)sc3ccccc23)cc1`, the AC40 is 1.97 µM.

For the compound `CCCCCCn1c(N(CC)CC)nc2c1c(=O)[nH]c(=O)n2C`, the AC40 was 30.8 µM. Regarding `CCCNC(=O)c1nnsc1S(=O)c1ccc(Cl)cc1` (stereo not given), the AC40 was 1.16 µM. Take `COC(=O)C1=C(C)N(C)C(=NCc2cccc(C(F)(F)F)c2)NC1c1ccc(C(F)(F)F)cc1` (stereo not given): the AC40 was 4.7 µM. For `NC1=NC[C@H](CC2CCCCC2)N1CCc1cc(C(F)(F)F)cc(C(F)(F)F)c1`, the AC40 is 9.8 µM. Turning to `Fc1ccccc1/C=N/n1c(C2CCCCC2)n[nH]c1=S`, the AC40 was 11.8 µM. In the case of `COc1ccccc1NC(=O)N1CCCCN2[C@@H](CO)[C@@H](c3ccc(C#CC4CCCC4)cc3)[C@@H]2C1`, the AC40 was 9.17 µM.

For `Cc1c(C(=O)OCC(=O)N2CC(=O)Nc3ccccc32)oc2ccc(Br)cc12`, the AC40 was 5.24 µM.

For `CN(C)CCOc1ccc(-c2c(-c3ccsc3)sc3ccccc23)cc1`, the AC40 is 5.7 µM. Under `O=C(NC(=S)Nc1ccc(NC(=O)c2cccs2)cc1)c1cc2ccccc2o1` stands 10.9 µM; under `CC1CCN(S(=O)(=O)c2ccc(C(=O)OCc3ccc4c(c3)OCO4)cc2)CC1`, 11.4 µM. Under `CCOC(=O)c1[nH]c2cc(OC)c(OC)cc2c1NC(=O)c1ccc2c(c1)OCO2` stands 15.6 µM; under `CCC(=O)Nc1ccc(NC(=S)NC(=O)c2oc3ccccc3c2C)cc1`, 3.36 µM; under `COc1ccc(C)cc1NCc1cc(=O)oc2cc(-c3ccccc3)c(O)cc12`, 23.6 µM. Take `COc1nc(-c2ccc(Cl)cc2)ccc1-c1noc(-c2ccco2)n1`: the AC40 is 16 µM.

On to `Fc1cccc(-c2ccc(C3[C@@H]4CN(Cc5ccccc5F)C[C@H]3N4)cc2)c1` (stereo not given in full), for which the AC40 is 6.11 µM. `O=c1[nH]c(/C=C/c2ccc(OC(F)F)cc2)nc2c1cnn2-c1ccccc1`: the AC40 is 25.6 µM. Turning to `O=c1c2ccc(Cl)cc2[nH]c(=S)n1CCC1=CCCCC1`, the AC40 was 2.15 µM. Under `C/C=C/c1ccc(C2[C@H]3CNC[C@@H]2N3Cc2cc(-c3ccccc3)on2)cc1` (stereo not given in full) stands 6.73 µM; under `CCCCc1c(-c2ccccc2F)ncn1CCc1ccccc1OC`, 9.38 µM.

`CCOC(=O)c1ccccc1NC(=O)c1n[nH]c(=O)c2ccccc12`: the AC40 was 3.05 µM. In the case of `Clc1ccc(/C=N/NC2=Nc3cccc4cccc2c34)cc1`, the AC40 was 2.88 µM. For the compound `COc1ccc(N2CCN(c3ccc(NC(=O)C4CCCCC4)cc3C#N)CC2)cc1`, the AC40 was 3.22 µM. Under `COc1cc(OC)c2c3c(c(C4CCCCC4)nc2c1)CCC3` stands 7.44 µM; under `O=C(N/N=C\c1ccc(CNS(=O)(=O)c2ccc(Cl)cc2)o1)C(=O)Nc1ccc(Oc2ccccc2)cc1`, 1.8 µM. As for `COc1ccc(CC2c3cc(OC)c(OC)cc3CCN2C)cc1O` (stereo not given), the AC40 is 14.7 µM. Under `CC1(Cc2cc(Cl)ccc2C(F)(F)F)C(=O)Nc2cc(C(F)(F)F)ccc21` (stereo not given) stands 12.4 µM; under `CCCOc1ccc(/C=N/NC(=O)C(=O)Nc2ccccn2)cc1`, 18.5 µM; under `OC(c1ccccc1)(c1ccccc1)C1CCN(CCCOc2ccc3c(c2)CCCC3)CC1`, 3.37 µM. Under `NC(N)=N/N=C/c1ccc(OCc2ccccc2Cl)cc1` stands 12.3 µM; under `COc1cc2c3nnc(-c4ccccc4)c-3cn(Cc3ccccc3F)c2cc1OC`, 15.6 µM. With `Cc1ccc(NC(=O)c2ccc(COc3ccc4c(c3)CCC4)cc2)c(C)c1`, the AC40 is 0.841 µM. Consider `CCOc1ccc(CN2C(=O)c3ccccc3C2=O)cc1C(=O)Nc1nnc(SCC)s1`, for which the AC40 is 5.71 µM.

In the case of `Cc1cc(C)c2nc(N(CCCN(C)C)C(=O)c3ccc4c(c3)CCCC4)sc2c1`, the AC40 was 7.77 µM.

For `COc1cc(/C=N/NC(=O)Nc2ccccc2)ccc1OCCOc1ccccc1C`, the AC40 was 1.92 µM.

Consider `CS(=O)(=O)c1cnc(-c2ccccc2)nc1Oc1ccc(F)cc1`, for which the AC40 was 10.9 µM. For `CCOC(=O)c1c(-c2ccc(-c3ccccc3)cc2)csc1NC(=O)CNCCN(C)C`, the AC40 was 5.75 µM. Take `FC(F)(F)c1cc(CCN2CCNC[C@@H]2CC2CCCCC2)cc(C(F)(F)F)c1`: the AC40 was 4.05 µM. On to `Cc1nc2c(-c3ccc(F)cc3)cnn2c2c1CCC2`, for which the AC40 is 20.1 µM. Under `CC(C)(C)OC(=O)N[C@@H](Cc1ccccc1)c1nnc(S(=O)(=O)Cc2ccccc2)o1` stands 2.63 µM. Under `O=c1c2ccccc2nc(-c2ccco2)n1/N=C/c1ccccc1O` stands 11.7 µM. In the case of `Clc1ccc(-c2ccnc(Oc3ccc4ccccc4c3)n2)cc1`, the AC40 is 7.79 µM. Consider `O=C1N/C(=N\N=C\c2cccs2)SC1Cc1cccc(Cl)c1` (stereo not given), for which the AC40 is 5.93 µM. Take `COC(=O)C1=C(C)N(Cc2cccc(C(F)(F)F)c2)C(=NCc2ccccc2)NC1c1ccc(Cl)cc1` (stereo not given): the AC40 is 10.4 µM. Consider `Cc1cc2c(cc1C)CSC(c1c(O)ccc3ccccc13)SC2`, for which the AC40 is 17.9 µM. As to `CN(C)C(=O)COC(=O)c1cccnc1Nc1ccccc1F`, the AC40 was 29.5 µM. Regarding `OC[C@@H]1[C@@H](c2ccc(C#CC3CCCC3)cc2)[C@H]2CN(CCC(F)(F)F)CCCCN12`, the AC40 was 6.32 µM. Turning to `COc1ccc(C(O)c2nc(-c3ccc(OC)c(OC)c3)cs2)cc1` (stereo not given), the AC40 was 34.2 µM.
